Test results as given in article PMC4210713, “Intragenic antimicrobial peptides from Theobroma cacao” (BMC Proceedings, 2014).
Where no end group is shown, it is not given here.

Tested on: Candida albicans ATCC 90028
Conditions: C. albicans ATCC 90028; broth microdilution, CLSI M27-A3; tested at 256 μM-0.5 μM; preliminary results

In the case of GFKDLLKGAAKALVKTVLF-NH2 [Ascaphin-8], the “MIC (minimum inhibitory concentration)” value is reported as 8 µM.
